Measured values published in patent publication US11512053B2, “Arginine methyltransferase inhibitors and uses thereof” (priority 2013, dated 2022).
Where two headings read alike, the source gives them in different places.

Biological target: T1, full-length human PRMT3 isoform 1 (GST-tagged) (Homo sapiens, UniProt O60678)
T1 construct: GST-tagged PRMT3; made in house; host or cells: E. coli BL21(DE3) Gold
Test: PRMT3 Biochemical Assay (3H-SAM Flashplate, peptide substrate)
Description: General Materials. S-adenosylmethionine (SAM), S-adenosylhomocysteine (SAH), bicine, Tween20, dimethylsulfoxide (DMSO), bovine skin gelatin (BSG),), isopropyl-β-D-thiogalactopyranoside (IPTG), and Tris(2-carboxyethyl)phosphine hydrochloride solution (TCEP) were purchased from Sigma-Aldrich at the highest level of purity possible. ^3H-SAM was purchase from American Radiolabeled Chemicals with a specific activity of 80 Ci/mmol. 384-well streptavidin Flashplates were purchased from PerkinElmer.
Substrates. Peptide containing the classic RMT substrate motif was synthesized with an N-terminal linker-affinity tag motif and a C-terminal amide cap by 21st Century Biochemicals. The peptide was purified by high-performance liquid chromatography (HPLC) to greater than 95% purity and confirmed by liquid chromatography mass spectrometry (LC-MS). The sequence was Biot-Ahx-[…]-amide (SEQ ID NO.:11).
Molecular Biology: Full-length human PRMT3 (NM_005788.3) isoform 1 transcript clone was amplified from an HEK 293 cDNA library and subcloned into pGEX-KG (GE Life Sciences). The resulting construct encodes an N-terminal GST tag and a thrombin cleavage sequence ([…] […] […] […] S) (SEQ ID NO.:12) fused directly to Cys 2 of PRMT3.
Protein Expression. E. coli (BL21(DE3) Gold, Stratagene) made competent by the CaCl2) method were transformed with the PRMT3 construct and ampicillin selection. Protein over-expression was accomplished by growing the PRMT3 expressing E. coli clone and inducing expression with 0.3 mM IPTG at 16° C. The culture was grown for 12 hours, harvested by centrifugation, and stored at −80° C. for purification.
Protein Purification. […] GST-tagged PRMT3 was eluted with 50 mM Tris, 2 mM glutathione, pH 7.1 and 50 mM Tris, 20 mM glutathione, pH 7.1. Pooled fractions were dialysed in 20 mM Tris, 50 mM NaCl, 5% glycerol, 1 mM EDTA, 1 mM DTT, pH7.5 (Buffer B) and applied to a Q Sepharose Fast Flow column. GST-tagged PRMT3 was eluted by 500 mM NaCl in buffer B. Pooled fractions were dialyzed in 25 mM phosphate buffer, 100 mM NaCl, 5% glycerol, 2 mM DTT, pH 6.8 (Buffer C) and loaded on to a ceramic hydroxyapatite column. GST-tagged PRMT3 eluted with 25-400 mM phosphate in buffer C. Protein was concentrated and buffer was exchanged to 20 mM Tris, 150 mM NaCl, 5% glycerol, 5 mM β-mercaptoethanol, pH7.8 by ultrafiltration. The purity of recovered protein was 70%.
General Procedure for PRMT3 Enzyme Assays on Peptide Substrates. The assays were all performed in a buffer consisting of 20 mM Bicine (pH=7.6), 1 mM TCEP, 0.005% BSG, and 0.002% Tween 20, prepared on the day of use. Compounds in 100% DMSO (1 ul) were spotted into a polypropylene 384-well V-bottom plates (Greiner) using a Platemate Plus outfitted with a 384-channel head (Thermo Scientific). DMSO (1 ul) was added to Columns 11, 12, 23, 24, rows A-H for the maximum signal control and 1 ul of SAH, a known product and inhibitor of PRMT3, was added to columns 11, 12, 23, 24, rows I-P for the minimum signal control. A cocktail (40 ul) containing the PRMT3 enzyme was added by Multidrop Combi (Thermo-Fisher). The compounds were allowed to incubate with PRMT3 for 30 min at room temperature, then a cocktail (10 ul) containing SAM and peptide was added to initiate the reaction (final volume=51 ul). The final concentrations of the components were as follows: PRMT3 was 0.5 nM, ^3H-SAM was 100 nM, non-radiolabeled SAM was 1.8 uM, peptide was 330 nM, SAH in the minimum signal control wells was 1 mM, and the DMSO concentration was 2%. The assays were stopped by the addition of potassium chloride (10 ul) to a final concentration of 100 mM. 50 ul of the reaction in the 384-well polypropylene plate was then transferred to a 384-well Flashplate and the biotinylated peptides were allowed to bind to the streptavidin surface for at least 1 hour before being washed once with 0.1% Tween20 in a Biotek ELx405 plate washer. […]

T1 sequence (O60678 with tags, fused parts or gaps): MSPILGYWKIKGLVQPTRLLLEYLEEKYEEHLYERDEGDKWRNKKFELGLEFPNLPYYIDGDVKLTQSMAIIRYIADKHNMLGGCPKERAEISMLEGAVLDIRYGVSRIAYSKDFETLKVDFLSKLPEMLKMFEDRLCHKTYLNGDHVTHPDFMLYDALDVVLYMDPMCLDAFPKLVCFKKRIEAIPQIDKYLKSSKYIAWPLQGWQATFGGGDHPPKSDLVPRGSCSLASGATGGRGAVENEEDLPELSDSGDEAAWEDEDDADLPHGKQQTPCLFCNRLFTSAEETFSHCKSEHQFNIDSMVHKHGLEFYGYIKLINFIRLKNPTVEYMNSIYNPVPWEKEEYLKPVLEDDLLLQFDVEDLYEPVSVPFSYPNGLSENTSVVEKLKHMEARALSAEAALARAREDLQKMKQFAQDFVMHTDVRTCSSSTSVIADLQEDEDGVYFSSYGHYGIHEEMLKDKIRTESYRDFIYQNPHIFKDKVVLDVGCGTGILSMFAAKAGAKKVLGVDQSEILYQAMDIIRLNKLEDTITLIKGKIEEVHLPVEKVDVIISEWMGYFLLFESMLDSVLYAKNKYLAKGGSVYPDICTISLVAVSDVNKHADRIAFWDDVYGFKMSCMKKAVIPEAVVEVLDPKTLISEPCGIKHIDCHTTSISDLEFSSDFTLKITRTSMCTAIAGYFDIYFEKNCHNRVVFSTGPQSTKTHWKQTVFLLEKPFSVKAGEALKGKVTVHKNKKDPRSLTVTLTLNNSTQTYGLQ

IC50: 3.01 to 10 µM
IC50 (single experiment or average of multiple experiments): 8.93 µM
Compound: CN(CCN)Cc1c[nH]nc1CCc1ccccc1 [Compound 9]
